# Measurements from PubChem BioAssay (NCI).
#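 96-well plates; 48 h exposure; 5 concentrations. Endpoints by linear interpolation between flanking doses. Not reached: highest tested concentration assigned. At the GI50, growth is halved. The concentration for full growth arrest is given as TGI.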
# Columns and labels:
# Test in all cases: inhibition of tumour cell growth, NCI panel, 48 h
# 786-0 renal = test system: 786-0 renal
# A498 renal = test system: A498 renal
# A549 NSCLC = test system: A549 NSCLC
# ACHN renal = test system: ACHN renal
# BT-549 breast = test system: BT-549 breast
# CAKI-1 renal = test system: CAKI-1 renal
# CCRF-CEM leukemia = test system: CCRF-CEM leukemia
# COLO 205 colon = test system: COLO 205 colon
# DU-145 prostate = test system: DU-145 prostate
# EKVX NSCLC = test system: EKVX NSCLC
# HCC-2998 colon = test system: HCC-2998 colon
# HCT-116 colon = test system: HCT-116 colon
# HCT-15 colon = test system: HCT-15 colon
# HL-60(TB) leukemia = test system: HL-60(TB) leukemia
# HOP-62 NSCLC = test system: HOP-62 NSCLC
# HOP-92 NSCLC = test system: HOP-92 NSCLC
# HS 578T breast = test system: HS 578T breast
# HT29 colon = test system: HT29 colon
# IGROV1 ovarian = test system: IGROV1 ovarian
# K-562 leukemia = test system: K-562 leukemia
# KM12 colon = test system: KM12 colon
# LOX IMVI melanoma = test system: LOX IMVI melanoma
# M14 melanoma = test system: M14 melanoma
# MALME-3M melanoma = test system: MALME-3M melanoma
# MCF7 breast = test system: MCF7 breast
# MDA-MB-231 breast = test system: MDA-MB-231 breast
# MDA-MB-435 = test system: MDA-MB-435
# MDA-MB-468 breast = test system: MDA-MB-468 breast
# MOLT-4 leukemia = test system: MOLT-4 leukemia
# NCI-H226 lung = test system: NCI-H226 lung
# NCI-H23 lung = test system: NCI-H23 lung
# NCI-H460 lung = test system: NCI-H460 lung
# NCI-H522 lung = test system: NCI-H522 lung
# OVCAR-3 ovarian = test system: OVCAR-3 ovarian
# OVCAR-4 ovarian = test system: OVCAR-4 ovarian
# OVCAR-5 ovarian = test system: OVCAR-5 ovarian
# OVCAR-8 ovarian = test system: OVCAR-8 ovarian
# PC-3 prostate = test system: PC-3 prostate
# RPMI-8226 leukemia = test system: RPMI-8226 leukemia
# RXF 393 renal = test system: RXF 393 renal
# SF-268 CNS = test system: SF-268 CNS
# SF-295 CNS = test system: SF-295 CNS
# SF-539 CNS = test system: SF-539 CNS
# SK-MEL-2 melanoma = test system: SK-MEL-2 melanoma
# SK-MEL-28 melanoma = test system: SK-MEL-28 melanoma
# SK-MEL-5 melanoma = test system: SK-MEL-5 melanoma
# SK-OV-3 ovarian = test system: SK-OV-3 ovarian
# SN12C renal = test system: SN12C renal
# SNB-19 CNS = test system: SNB-19 CNS
# SNB-75 CNS = test system: SNB-75 CNS
# SR leukemia = test system: SR leukemia
# SW-620 colon = test system: SW-620 colon
# T-47D breast = test system: T-47D breast
# TK-10 renal = test system: TK-10 renal
# U251 CNS = test system: U251 CNS
# UACC-257 melanoma = test system: UACC-257 melanoma
# UACC-62 melanoma = test system: UACC-62 melanoma
# UO-31 renal = test system: UO-31 renal
compound,measurement,setting,value
O=c1cc(-c2ccccc2)oc2cc(OCCCCNCc3ccccc3)cc(O)c12,GI50,786-0 renal,4.54 µM
same,TGI,786-0 renal,18.6 µM
same,GI50,A498 renal,19.8 µM
same,TGI,A498 renal,36.8 µM
same,GI50,A549 NSCLC,7.94 µM
same,TGI,A549 NSCLC,21.1 µM
same,GI50,ACHN renal,12.2 µM
same,TGI,ACHN renal,26.9 µM
same,GI50,BT-549 breast,13.2 µM
same,TGI,BT-549 breast,26.7 µM
same,GI50,CAKI-1 renal,10.2 µM
same,TGI,CAKI-1 renal,22.3 µM
same,GI50,CCRF-CEM leukemia,2.89 µM
same,TGI,CCRF-CEM leukemia,15.8 µM
same,GI50,COLO 205 colon,5.13 µM
same,TGI,COLO 205 colon,18.4 µM
same,GI50,DU-145 prostate,12.2 µM
same,TGI,DU-145 prostate,24.5 µM
same,GI50,EKVX NSCLC,12.7 µM
same,TGI,EKVX NSCLC,25.9 µM
same,GI50,HCC-2998 colon,2.3 µM
same,TGI,HCC-2998 colon,5.74 µM
same,GI50,HCT-116 colon,4.28 µM
same,TGI,HCT-116 colon,17.2 µM
same,GI50,HCT-15 colon,3.48 µM
same,TGI,HCT-15 colon,12.8 µM
same,GI50,HL-60(TB) leukemia,1.12 µM
same,TGI,HL-60(TB) leukemia,3.43 µM
same,GI50,HOP-62 NSCLC,13.2 µM
same,TGI,HOP-62 NSCLC,27.5 µM
same,GI50,HOP-92 NSCLC,3.73 µM
same,TGI,HOP-92 NSCLC,21.1 µM
same,GI50,HS 578T breast,11 µM
same,TGI,HS 578T breast,32 µM
same,GI50,HT29 colon,2.95 µM
same,TGI,HT29 colon,12 µM
same,GI50,IGROV1 ovarian,11.4 µM
same,TGI,IGROV1 ovarian,26.6 µM
same,GI50,K-562 leukemia,1.97 µM
same,TGI,K-562 leukemia,7.35 µM
same,GI50,KM12 colon,5.7 µM
same,TGI,KM12 colon,18.9 µM
same,GI50,LOX IMVI melanoma,3.13 µM
same,TGI,LOX IMVI melanoma,11.2 µM
same,GI50,M14 melanoma,2.02 µM
same,TGI,M14 melanoma,4.48 µM
same,GI50,MALME-3M melanoma,2.19 µM
same,TGI,MALME-3M melanoma,7.29 µM
same,GI50,MCF7 breast,3.43 µM
same,TGI,MCF7 breast,14.9 µM
same,GI50,MDA-MB-231 breast,7.02 µM
same,TGI,MDA-MB-231 breast,21.3 µM
same,GI50,MDA-MB-435,7.98 µM
same,TGI,MDA-MB-435,20.5 µM
same,GI50,MDA-MB-468 breast,2.55 µM
same,TGI,MDA-MB-468 breast,11.1 µM
same,GI50,MOLT-4 leukemia,2.12 µM
same,TGI,MOLT-4 leukemia,9.43 µM
same,GI50,NCI-H226 lung,13.5 µM
same,TGI,NCI-H226 lung,32 µM
same,GI50,NCI-H23 lung,13.8 µM
same,TGI,NCI-H23 lung,27.4 µM
same,GI50,NCI-H460 lung,4.96 µM
same,TGI,NCI-H460 lung,17.4 µM
same,GI50,NCI-H522 lung,13.1 µM
same,TGI,NCI-H522 lung,29.3 µM
same,GI50,OVCAR-3 ovarian,12 µM
same,TGI,OVCAR-3 ovarian,25 µM
same,GI50,OVCAR-4 ovarian,8.92 µM
same,TGI,OVCAR-4 ovarian,23.6 µM
same,GI50,OVCAR-5 ovarian,19 µM
same,TGI,OVCAR-5 ovarian,35.7 µM
same,GI50,OVCAR-8 ovarian,12.6 µM
same,TGI,OVCAR-8 ovarian,28.7 µM
same,GI50,PC-3 prostate,5.01 µM
same,TGI,PC-3 prostate,19.9 µM
same,GI50,RPMI-8226 leukemia,2.25 µM
same,TGI,RPMI-8226 leukemia,6.98 µM
same,GI50,RXF 393 renal,1.91 µM
same,TGI,RXF 393 renal,10.1 µM
same,GI50,SF-268 CNS,10.6 µM
same,TGI,SF-268 CNS,27 µM
same,GI50,SF-295 CNS,11.7 µM
same,TGI,SF-295 CNS,24.4 µM
same,GI50,SF-539 CNS,11.7 µM
same,TGI,SF-539 CNS,25.3 µM
same,GI50,SK-MEL-2 melanoma,16.3 µM
same,TGI,SK-MEL-2 melanoma,30.2 µM
same,GI50,SK-MEL-28 melanoma,3.24 µM
same,TGI,SK-MEL-28 melanoma,9.38 µM
same,GI50,SK-MEL-5 melanoma,12.2 µM
same,TGI,SK-MEL-5 melanoma,24.7 µM
same,GI50,SK-OV-3 ovarian,14.6 µM
same,TGI,SK-OV-3 ovarian,28 µM
same,GI50,SN12C renal,12.7 µM
same,TGI,SN12C renal,28 µM
same,GI50,SNB-19 CNS,13.3 µM
same,TGI,SNB-19 CNS,27.9 µM
same,GI50,SNB-75 CNS,10.5 µM
same,TGI,SNB-75 CNS,22.4 µM
same,GI50,SR leukemia,1.79 µM
same,TGI,SR leukemia,4.63 µM
same,GI50,SW-620 colon,10.2 µM
same,TGI,SW-620 colon,23.4 µM
same,GI50,T-47D breast,13.7 µM
same,TGI,T-47D breast,33.1 µM
same,GI50,TK-10 renal,15.5 µM
same,TGI,TK-10 renal,29.5 µM
same,GI50,U251 CNS,6.11 µM
same,TGI,U251 CNS,19.1 µM
same,GI50,UACC-257 melanoma,2.99 µM
same,TGI,UACC-257 melanoma,9.75 µM
same,GI50,UACC-62 melanoma,2.16 µM
same,TGI,UACC-62 melanoma,4.79 µM
same,GI50,UO-31 renal,6.11 µM
same,TGI,UO-31 renal,21.1 µM
